{"source": "patent US11548878B2", "about": "“Emopamil binding protein binding agent and use thereof” (FUJIFILM Toyama Chemical Co., Ltd., priority 2017, dated 2023)", "target": "T1, EBP (Homo sapiens, UniProt Q15125)", "T1 construct": "A membrane fraction was collected from sigma-1 receptor-deficient human neuroblastoma (SH-SY5Y) cells; endogenous in cells; host or cells: sigma-1 receptor-deficient SH-SY5Y human neuroblastoma cells (membrane fraction)", "T1 sequence (Q15125 2-230 limits assumed)": "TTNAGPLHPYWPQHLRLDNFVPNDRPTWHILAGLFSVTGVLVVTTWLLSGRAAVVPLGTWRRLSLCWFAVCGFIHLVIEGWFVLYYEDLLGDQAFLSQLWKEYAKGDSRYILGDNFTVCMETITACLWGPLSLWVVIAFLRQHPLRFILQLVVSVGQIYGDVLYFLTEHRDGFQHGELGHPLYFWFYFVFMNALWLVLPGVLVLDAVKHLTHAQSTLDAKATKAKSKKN", "experiment": "EBP Binding Test (Test Example 1): tritium-labeled Compound A binding to membrane fractions of sigma-1 receptor-deficient SH-SY5Y cells with EBP deleted or overexpressed", "method": "The binding ability of Compound A to EBP was examined. The test was carried out in accordance with Receptor Signal Transduction Protocols, pp. 135-164 (ISBN 978-1-61779-125-3).\nA membrane fraction was collected from sigma-1 receptor-deficient human neuroblastoma (SH-SY5Y) cells, in which EBP was deleted or was overexpressed. Inactivated fetal bovine serum was added to a liquid medium DMEM (Dulbecco's Modified Eagle's Medium) to a final concentration of 10%, and then, a Penicillin-Streptomycin solution (10000 U/mL Penicillin-10000 μg/mL Streptmycin) was added to the medium to a final concentration of 100 U/mL Penicillin-100 μg/mL Streptmycin. The SH-SY5Y cells were cultured in the thus prepared medium.\nThe method of preparing a membrane fraction is as follows. The cells cultured to a subconfluent state were recovered using a cell scraper, and were then suspended in a 50 mM Tris-HCl (pH=7.4) buffer, followed by disintegrating the cells with an ultrasonic disintegrator. The disintegrated solution was centrifuged (1000 g, 10 minutes), and the supernatant was then ultracentrifuged (28000 rpm, 30 minutes). Thereafter, the obtained precipitate was re-suspended in a 50 mM Tris-HCl (pH=7.4) buffer to obtain a membrane fraction. Regarding the thus prepared membrane fraction, the protein concentration was measured according to a BCA method, and the membrane fraction was then adjusted to a concentration of approximately 1 mg/mL. […]\nThe receptor binding test method is as follows. […] Thereafter, a liquid scintillation cocktail was added thereto, and the radiation dose (CPM) in each well was then measured using a scintillation counter.\nThe specific binding ability of Compound A to EBP was determined by subtracting the radiation dose of the control (Non-specific binding) from the radiation dose derived from the tritium-labeled Compound A at each concentration (Total binding). Since the amount of the protein used was different depending on the cell membrane, CPM per μg of the membrane fraction protein used in the reaction was calculated (CPM/protein amount)."}
{"smiles": "OC1CN(CCCOCCc2ccc3sccc3c2)C1", "note": "[Compound A]", "values": [{"measurement": "affinity for EBP", "setting": "conclusion from FIG. 1 and FIG. 2", "result": "high affinity"}, {"measurement": "radiation dose (specific binding, CPM/protein amount) in sigma-1 receptor-deficient and EBP-deficient cells compared with sigma-1 receptor-deficient cells", "setting": "membrane fraction of SH-SY5Y cells, tritium-labeled Compound A 0.05-100.0 nM, 37° C. for 2 hours, FIG. 1", "result": "lower"}, {"measurement": "radiation dose (specific binding, CPM/protein amount) in sigma-1 receptor-deficient and EBP-overexpressing cells compared with sigma-1 receptor-deficient cells", "setting": "membrane fraction of SH-SY5Y cells, tritium-labeled Compound A 0.05-100.0 nM, 37° C. for 2 hours, FIG. 2", "result": "higher"}]}
